Data published in patent publication US20240197828A1, “Chimeric molecule to treat sepsis and other inflammatory conditions” (THE FEINSTEIN INSTITUTES FOR MEDICAL RESEARCH, priority 2022, published 2024).
Residues, ends and D or L forms follow the SMILES beside them.

Tested on: WT mice
Assay: CLP-induced polymicrobial sepsis, 20 hours
Type: in vivo, mouse
Settings: vs vehicle
Description: FIG. 6A-6M: MOP3 ameliorates inflammation, lung injury, and improves survival in sepsis. WT mice subjected to CLP-induced sepsis with MOP3 treatment (10 μg/kg) or vehicle (volume-equivalent). After 20 hours, blood and lung tissue collected for respective analyses. (A-C) Serum was analyzed for systemic eCIRP, IL-6, and TNFα levels by ELISA. (D-F) Serum was analyzed for ALT, AST, and LDH by calorimetric assays. (G-I) Lung tissue was frozen and mRNA expression of IL-6, TNFα, and IL-1β was measured by PCR and MPO by calorimetric assay. (J) Lung tissue was frozen and analyzed for MPO levels by calorimetric assay. (K) Lungs were sectioned, imaged for histologic injury by H&E staining, and performed lung injury scoring. (L) Sectioned lungs were stained for TUNEL positive cells and cell counts were quantified. All experiments were performed 3 times, and all data were used for analysis (N=6-18). Data are expressed as mean±SEM and compared by one-way ANOVA and SNK test. *p<0.05 vs. sham, #p<0.05 vs. CLP vehicle. (M) WT mice subjected to CLP-induced sepsis with MOP3 treatment (10 μg/kg) or vehicle (volume equivalent) and monitored for 10 days for humane endpoints, and differences in survival were determined (N=17 per group). *p<0.05 vs. CLP vehicle.
Adult (8-12 weeks) male, C57BL/6 wild-type (WT) mice (20-30 g) were purchased from Charles River Laboratories. MFG-E8 knockout mice (MFG-E8^−/−) were originally obtained from Dr. Shigekazu Nagata, Osaka University of Japan, and bred following our Institutional Animal Care and Use Committee (IACUC) policies. Age-matched, healthy mice were used in all experiments. Animals were randomly assigned to sham, vehicle, or treatment groups. Concerted effort was made to ensure that a limited number of animals were used in each experiment. All experiments were previously approved by IACUC of the Feinstein Institutes for Medical Research (Manhasset, NY) and were performed in accordance with the guidance for the use of experimental animals by the National Institutes of Health (Bethesda, MD). For the design of in vivo models, sample size calculation was driven by variability, effect size, significance level and power as determined through performance of early feasibility and optimization pilot studies.
Sepsis was induced in mice by cecal ligation and puncture (CLP) as previously described (4). Briefly, mice were anesthetized with inhaled isoflurane to achieve adequate anesthesia. After placement in the supine position, the abdomen was shaved and disinfected. A 2-cm midline laparotomy was created. The cecum was located and eviscerated from the abdomen and then ligated with a 4-0 silk suture approximately 1 cm proximal from the terminal cecal extremity. For short-term experiments using this polymicrobial sepsis model, the cecum was punctured twice (through and through) with a 22G needle. Careful extraction of a consistent, small amount of cecal content was extruded, and the cecum along with cecal content was returned to the peritoneal cavity. […] All comparative surgeries were performed on the same day to reduce severity-variability. All short-term experiments were repeated at least three-times to ensure reproducibility of relative markers of inflammation and injury.
For respective experiments, either WT or MFG-E8 knockout mice were subjected to CLP. For treatment experiments, mice were randomly assigned to either vehicle or treatment groups. MOP3 ([…]) was given via retroorbital (r.o.) injection at time of surgery, immediately following abdominal closure. Vehicle groups received an equivalent volume of normal saline via r.o. injection. For resuscitation, mice additionally received subcutaneous injection of 500 μL of normal saline immediately after abdominal closure.
The mouse macrophage cell culture supernatants were analyzed for cytokine levels using ELISA kits (BD Biosciences, CA). […]

Compound: CC(C)C[C@H](NC(=O)[C@H](CC(N)=O)NC(=O)[C@H](Cc1c[nH]c2ccccc12)NC(=O)[C@@H](NC(=O)[C@H](CCCCN)NC(=O)[C@H](Cc1ccc(O)cc1)NC(=O)[C@H](CO)NC(=O)[C@H](CO)NC(=O)[C@H](CO)NC(=O)[C@H](CC(=O)O)NC(=O)CNC(=O)[C@@H](N)CCCNC(=N)N)[C@@H](C)O)C(=O)N[C@@H](CCCNC(=N)N)C(=O)N[C@@H](C)C(=O)N[C@@H](Cc1ccccc1)C(=O)NCC(=O)N[C@@H](Cc1c[nH]c2ccccc12)C(=O)N[C@@H](Cc1ccc(O)cc1)C(=O)O [MOP3, RGDSSSYKTWNLRAFGWY] (H-RGDSSSYKTWNLRAFGWY-OH; N-terminus and C-terminus assumed)
- lung tissue mRNA levels of IL-1β (PCR): reduced
- lung tissue mRNA levels of IL-6 (PCR): reduced
- lung tissue mRNA levels of TNFα (PCR): reduced
- serum levels of eCIRP (one-time intravenous MOP3 at surgical closure): significantly reduced
- systemic IL-6 (serum): attenuated systemic inflammation
- systemic TNFα (serum): attenuated systemic inflammation
- apoptotic cells in lungs (TUNEL): significantly less apoptotic cells
- lung MPO levels: decreased
- lung histologic architecture (H&E, lung injury): significantly preserved histologic architecture
- serum ALT levels: reduced
- serum AST levels: reduced
- serum LDH levels: reduced
